Experimental findings from article PMC8286840, “Identifying SARS-CoV-2 antiviral compounds by screening for small molecule inhibitors of Nsp3 papain-like protease” (Biochemical Journal, 2021) are described below.

Counter-ions that a name gives are not always drawn. Like-named read-outs stand apart in the source and are kept apart here. Where a SMILES comes first, the peptide text is derived from it. The star is where a group is joined. Cbz = O=C(OCc1ccccc1)*; CH2F = FC*

Experiment [1] has as its target T1, SARS-CoV-2 PLpro (nsp3 1564–1878) (Severe acute respiratory syndrome coronavirus 2, UniProt P0DTD1). The experiment can be described thus: biochemical. Set-up: FRET-quenched peptide (Pro3) cleavage by PLpro, 10 min pre-incubation, slope over 20 min, normalised to no-compound control. The conditions noted are these: high concentration screen, read-out: % of control remaining.

In experiment [2] the target is T1, SARS-CoV-2 PLpro (nsp3 1564–1878). Kind of experiment: biochemical. The conditions noted are these: low concentration screen, read-out: % of control remaining. Set-up: FRET-quenched peptide (Pro3) cleavage by PLpro, 10 min pre-incubation, slope over 20 min, normalised to no-compound control.

On to `COc1ccc(CCN(C)CCc2ccc(OC)c(OC)c2)cc1OC` [YS-035 hydrochloride], for which, in experiment [1] (Well no.=1246), the remaining activity at 3.75 µM came to 102%. Moreover, in experiment [2] (Well no.=1246), the remaining activity at 1.25 µM amounted to 103%.

Turning to `Cc1ccc(NC(=O)C(=O)NC2CC(C)(C)NC(C)(C)C2)cc1` [YYA-021], the remaining activity at 3.75 µM in experiment [1] (Well no.=8084) turned out to be 106%. Further, the remaining activity at 1.25 µM in experiment [2] (Well no.=8084) was found to be 102%.

With `COc1ccc(/C=C/c2cc(OC)cc(=O)o2)cc1` [Yangonin], the remaining activity at 3.75 µM in experiment [1] (Well no.=3765) is 90.6%. Moreover, in experiment [2] (Well no.=3765), the remaining activity at 1.25 µM was found to be 90.2%.

Take `COC(=O)[C@@H]1[C@H]2C[C@H]3c4[nH]c5ccccc5c4CCN3C[C@@H]2CC[C@@H]1O` [Yohimbine (Hydrochloride)]: the remaining activity at 3.75 µM in experiment [1] (Well no.=8337) came out at 97.4%. Besides, in experiment [2] (Well no.=8337), the remaining activity at 1.25 µM was determined as 103%.

For the compound `COC(=O)[C@@H]1[C@H]2C[C@H]3c4[nH]c5ccccc5c4CCN3C[C@@H]2CC[C@@H]1O` [Yohimbine hydrochloride], in experiment [1] (Well no.=1198), the remaining activity at 3.75 µM worked out at 104%. Further, the remaining activity at 1.25 µM in experiment [2] (Well no.=1198) was found to be 105%.

In the case of `COC(=O)CC[C@H](NC(=O)[C@H](CC(=O)OC)NC(=O)OCc1ccccc1)C(=O)N[C@H](C(=O)N[C@@H](CC(=O)OC)C(=O)CF)C(C)C` [Z-DEVD-FMK], the figures for the remaining activity at 3.75 µM in experiment [1] (Well no.=7172) and in experiment [1] (Well no.=7636) were 99.7% and 91.3%, respectively. Further, the remaining activity at 1.25 µM worked out at 102% in experiment [2] (Well no.=7172) and 95.2% in experiment [2] (Well no.=7636).

With `CC[C@H](C)[C@H](NC(=O)OCc1ccccc1)C(=O)N[C@@H](CCC(=O)OC)C(=O)N[C@H](C(=O)N[C@@H](CC(=O)OC)C(=O)CF)[C@@H](C)O` [Z-IETD-FMK] (Cbz-IE(OMe)TD(OMe)-CH2F), in experiment [1] (Well no.=8262), the remaining activity at 3.75 µM worked out at 96.2%. Moreover, the remaining activity at 1.25 µM in experiment [2] (Well no.=8262) worked out at 98.1%.

For `O=C(N[C@@H](Cc1ccccc1)C(=O)CCl)OCc1ccccc1` [Z-L-Phe chloromethyl ketone], in experiment [1] (Well no.=238), the remaining activity at 3.75 µM was determined as 101%. Further, the remaining activity at 1.25 µM in experiment [2] (Well no.=238) was found to be 100%.

Turning to `COC(=O)C[C@H](NC(=O)[C@H](C)NC(=O)[C@@H](NC(=O)OCc1ccccc1)C(C)C)C(=O)CF` [Z-VAD(OMe)-FMK] (Cbz-Val-Ala-Asp(OMe)-CH2F), the values for the remaining activity at 3.75 µM in experiment [1] (Well no.=7116) and in experiment [1] (Well no.=8598) were 94.5% and 100%, respectively. Moreover, the remaining activity at 1.25 µM is 101% in experiment [2] (Well no.=7116) and 100% in experiment [2] (Well no.=8598).

In the case of `Cc1cc(C)nc(NS(=O)(=O)c2ccc(NC(=S)NC(=O)COc3ccc(Br)cc3Cl)cc2)n1` [ZCL278], the remaining activity at 3.75 µM was found to be 99.2% in experiment [1] (Well no.=7884) and 96.3% in experiment [1] (Well no.=8389). Further, the values for the remaining activity at 1.25 µM in experiment [2] (Well no.=7884) and in experiment [2] (Well no.=8389) were 98.2% and 102%, respectively.

In the case of `OCCOCCN1CCN(Cc2cccc(Oc3ccccc3)c2)CC1` [ZK756326 (dihydrochloride)], in experiment [1] (Well no.=6178), the remaining activity at 3.75 µM worked out at 101%. Besides, the remaining activity at 1.25 µM in experiment [2] (Well no.=6178) was found to be 99.6%; in experiment [2] (Well no.=8117), 104%.

Regarding `Cc1cc(N=Nc2ccc3c(c2)CCC(=O)N3)c(N)cc1O` [ZL0420], the remaining activity at 3.75 µM in experiment [1] (Well no.=8468) came out at 95.2%. The remaining activity at 1.25 µM in experiment [2] (Well no.=8468) stood at 103%.

As to `CC(C)N(CCC(=O)c1ccc2ccccc2c1)Cc1ccccc1` [ZM39923 (hydrochloride)], the remaining activity at 3.75 µM in experiment [1] (Well no.=8170) turned out to be 98%. For the same compound, in experiment [2] (Well no.=8170), the remaining activity at 1.25 µM was 104%.

As for `Nc1nc(NCCc2ccc(O)cc2)nc2nc(-c3ccco3)nn12` [ZM241385], the remaining activity at 3.75 µM in experiment [1] (Well no.=7042) is 104%; in experiment [1] (Well no.=8411) it was 88.3%. Besides, the figures for the remaining activity at 1.25 µM in experiment [2] (Well no.=7042) and in experiment [2] (Well no.=8411) were 106% and 90.6%, respectively.

Regarding `CC(C)N(CCC(=O)c1ccc2ccccc2c1)Cc1ccccc1` [ZM 39923 hydrochloride - 3-Benzylisopropylamino-1-naphthalen-2-yl-propan-1-one hydrochloride], the remaining activity at 3.75 µM in experiment [1] (Well no.=2390) was determined as 98.1%. Moreover, the remaining activity at 1.25 µM in experiment [2] (Well no.=2390) came out at 96.3%.

As to `Cc1cc(F)c(Nc2ncnc3cc(OCc4ccccc4)ccc23)cc1O` [ZM 323881 hydrochloride - 5-((7-Benzyloxyquinazolin-4-yl)amino)-4-fluoro-2-methylphenol hydrochloride], the remaining activity at 3.75 µM in experiment [1] (Well no.=2538) is 92%. Also, in experiment [2] (Well no.=2538), the remaining activity at 1.25 µM is 91.5%.

On to `Cc1ccc(NC(=O)c2cccc(N(C)C)c2)cc1NC(=O)c1ccc(O)cc1` [ZM 336372], for which the remaining activity at 3.75 µM in experiment [1] (Well no.=5878) was determined as 102%. In experiment [2] (Well no.=5878), the remaining activity at 1.25 µM came to 103%.

In the case of `COc1cc2c(Nc3ccc(NC(=O)c4ccccc4)cc3)ncnc2cc1OCCCN1CCOCC1` [ZM 447439 - N-[4-[[6-Methoxy-7-[3-(4-morpholinyl)propoxy]-4-quinazolinyl]amino]phenyl]benzamide], in experiment [1] (Well no.=2534), the remaining activity at 3.75 µM was 96.9%. In experiment [2] (Well no.=2534), the remaining activity at 1.25 µM was determined as 97.3%.

Consider `C=CC(=O)c1ccc2ccccc2c1` [ZM 449829 - 1-(2-Naphthalenyl)-2-propen-1-one], for which, in experiment [1] (Well no.=2388), the remaining activity at 3.75 µM came to 106%. For the same compound, in experiment [2] (Well no.=2388), the remaining activity at 1.25 µM amounted to 105%.

As for `FC(F)c1nc2ccccc2n1-c1nc(N2CCOCC2)nc(N2CCOCC2)n1` [ZSTK474], the remaining activity at 3.75 µM in experiment [1] (Well no.=4623) stood at 106%. Besides, in experiment [2] (Well no.=4623), the remaining activity at 1.25 µM is 102%.

Take `COc1cc(C(=O)NS(=O)(=O)c2ccccc2C)ccc1Cc1cn(C)c2ccc(NC(=O)OC3CCCC3)cc12` [Zafirlukast]: the remaining activity at 3.75 µM in experiment [1] (Well no.=8579) came to 101%. Besides, the remaining activity at 1.25 µM in experiment [2] (Well no.=1762) is 99.5%; in experiment [2] (Well no.=8579), 102%.

Turning to `Nc1ccn([C@H]2CC[C@@H](CO)O2)c(=O)n1` [Zalcitabine], the remaining activity at 3.75 µM in experiment [1] (Well no.=7856) came to 98.9%. In addition, the remaining activity at 1.25 µM in experiment [2] (Well no.=7856) is 92.9%.

As to `CC(C(=O)O)c1ccc2c(c1)CC(=O)c1ccccc1S2` (centres unmarked) [Zaltoprofen], the remaining activity at 3.75 µM in experiment [1] (Well no.=4879) was 97.2%. For the same compound, in experiment [2] (Well no.=4879), the remaining activity at 1.25 µM was 96.8%.

Turning to `CC(=O)N[C@H]1[C@H]([C@H](O)[C@H](O)CO)OC(C(=O)O)=C[C@@H]1NC(=N)N` [Zanamivir], the remaining activity at 3.75 µM in experiment [1] (Well no.=5883) came out at 104%. In experiment [2] (Well no.=5883), the remaining activity at 1.25 µM was determined as 103%.

As for `CCCOc1ccccc1-c1nc2[nH]nnc2c(=O)[nH]1` [Zaprinast], the remaining activity at 3.75 µM in experiment [1] (Well no.=1342) turned out to be 101%; in experiment [1] (Well no.=2188), 95.6%. Moreover, the remaining activity at 1.25 µM in experiment [2] (Well no.=1342) is 99.6%; in experiment [2] (Well no.=2188) it was 92%.

For the compound `COc1cc(-c2ccc(=O)[nH]n2)ccc1OC(F)F` [Zardaverine], the remaining activity at 3.75 µM turned out to be 94.9% in experiment [1] (Well no.=1438) and 98.2% in experiment [1] (Well no.=2190). In addition, the remaining activity at 1.25 µM in experiment [2] (Well no.=1438) was found to be 95.5%; in experiment [2] (Well no.=2190), 97.5%.

With `O=C(O)[C@H](Cc1ccc(Nc2nccc3ccncc23)cc1)NC1=C(Br)C(=O)C12CCCCC2` [Zaurategrast], the remaining activity at 3.75 µM in experiment [1] (Well no.=7838) was determined as 99.7%. Moreover, in experiment [2] (Well no.=7838), the remaining activity at 1.25 µM was found to be 98.1%.
